From ChEMBL document CHEMBL1201862, “PubChem BioAssay data set” (2004)
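Values below derive from 48-hour exposures of cells grown in 96-well plates, with endpoints linearly interpolated between the two concentrations bracketing the appropriate inhibition level. GI50 marks 50% less growth.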 Active and inactive are the calls of the source. Rule as the data show it: active = GI50 up to about 1.1 µM and inactive = higher.

Legend:
Experiment in all cases: growth of human tumour cells (NCI), 48 h
KM12 = test system: KM12
OVCAR-8 = test system: OVCAR-8
COLO 205 = test system: COLO 205
UO-31 = test system: UO-31
HCT-116 = test system: HCT-116
CAKI-1 = test system: CAKI-1
M14 = test system: M14
A498 = test system: A498
SF-295 = test system: SF-295
SW-620 = test system: SW-620
A549 = test system: A549
SNB-19 = test system: SNB-19
HCT-15 = test system: HCT-15
OVCAR-3 = test system: OVCAR-3
SF-539 = test system: SF-539
SNB-75 = test system: SNB-75
ACHN = test system: ACHN
MDA-MB-435 = test system: MDA-MB-435
NCI/ADR-RES = test system: NCI/ADR-RES

Measured: GI50

COC(=O)C(C(=O)C(=O)Nc1cccc(O)c1)c1nc2ccc(Cl)cc2nc1O (configuration not stated)
inactive: KM12 > 100 µM | OVCAR-8 > 100 µM | COLO 205 > 100 µM | UO-31 > 100 µM | HCT-116 > 100 µM | CAKI-1 > 100 µM | M14 > 100 µM | A498 > 100 µM | SF-295 > 100 µM | SW-620 > 100 µM | A549 > 100 µM | SNB-19 > 100 µM | OVCAR-3 > 100 µM | SF-539 > 100 µM | SNB-75 84.1 µM | ACHN > 100 µM
> 100 µM: HCT-15

CCOC(=O)c1cn(C)nc1N/C(C)=C\C(=O)c1ccccc1
inactive: KM12 > 100 µM | OVCAR-8 > 100 µM | COLO 205 > 100 µM | UO-31 > 100 µM | MDA-MB-435 > 100 µM | CAKI-1 > 100 µM | M14 > 100 µM | SF-295 > 100 µM | SW-620 > 100 µM | A549 > 100 µM | SNB-19 > 100 µM | OVCAR-3 > 100 µM | SF-539 83.2 µM | NCI/ADR-RES > 100 µM | ACHN > 100 µM
> 100 µM: HCT-15

Cc1cccc(C)c1NC(=O)C(=O)Cc1nc2ccccc2s1
inactive: KM12 > 100 µM | OVCAR-8 > 100 µM | COLO 205 > 100 µM | UO-31 > 100 µM | HCT-116 > 100 µM | CAKI-1 > 100 µM | M14 > 100 µM | A498 > 100 µM | SF-295 > 100 µM | SW-620 > 100 µM | A549 > 100 µM | SNB-19 > 100 µM | OVCAR-3 > 100 µM | SF-539 > 100 µM | SNB-75 27.5 µM | ACHN > 100 µM
> 100 µM: HCT-15

O=S(=O)(O)C1=C2Sc3ccccc3N=C2c2ccccc2C1
inactive: KM12 15.8 µM | OVCAR-8 16.9 µM | COLO 205 16.5 µM | UO-31 19.4 µM | HCT-116 15.2 µM | CAKI-1 20.1 µM | M14 12.7 µM | A498 18.6 µM | SF-295 13.8 µM | SW-620 15.3 µM | A549 16.2 µM | SNB-19 22.4 µM | OVCAR-3 17.5 µM | SF-539 11.9 µM | SNB-75 18.5 µM | ACHN 12.5 µM
13.6 µM: HCT-15

CN(C)c1ccc(-c2[nH]c(=O)c3ccccc3[n+]2C)cc1
> 100 µM: HCT-15
inactive: KM12 55.5 µM | OVCAR-8 > 100 µM | COLO 205 62.2 µM | UO-31 39.4 µM | HCT-116 93.8 µM | MDA-MB-435 63.8 µM | M14 41.3 µM | A498 99.1 µM | SF-295 > 100 µM | SW-620 > 100 µM | A549 > 100 µM | SNB-19 > 100 µM | SF-539 > 100 µM | NCI/ADR-RES 39.1 µM | SNB-75 > 100 µM | ACHN 62.5 µM

CC(=O)OC12c3ccccc3C(c3ccccc31)C1C(=O)N(c3ccccn3)C(=O)C12 (configuration not stated)
inactive: KM12 50.1 µM | OVCAR-8 > 100 µM | COLO 205 64.6 µM | UO-31 15.8 µM | HCT-116 54.7 µM | CAKI-1 > 100 µM | M14 51.8 µM | SF-295 58.2 µM | SW-620 > 100 µM | A549 62.7 µM | SNB-19 14.7 µM | OVCAR-3 28.4 µM | SF-539 > 100 µM | NCI/ADR-RES 55.2 µM | SNB-75 23.8 µM
69.3 µM: HCT-15

CN1CCCC2[C@@H]3CCC4=C(O)C(=O)CC[C@]4(C)C3CC[C@@]21C (some centres not stated)
inactive: KM12 > 100 µM | OVCAR-8 > 100 µM | COLO 205 > 100 µM | UO-31 > 100 µM | HCT-116 > 100 µM | CAKI-1 > 100 µM | M14 > 100 µM | A498 > 100 µM | SF-295 > 100 µM | SW-620 > 100 µM | A549 > 100 µM | SNB-19 > 100 µM | OVCAR-3 > 100 µM | SF-539 > 100 µM | SNB-75 > 100 µM | ACHN > 100 µM
> 100 µM: HCT-15
